Tested on: PSMA-expressing cancer xenografts (LNCaP)
Test: Biodistribution of ^177Lu-labeled HTK03041
Format: in vivo, mice
Conditions: for Tissue (% ID/g): Adrenal glands / Tissue (% ID/g): Blood / Tissue (% ID/g): Bone / Tissue (% ID/g): Brain / Tissue (% ID/g): Fat / Tissue (% ID/g): Heart / Tissue (% ID/g): Intestine / Tissue (% ID/g): Kidneys / Tissue (% ID/g): Lacrimal / Tissue (% ID/g): Liver / Tissue (% ID/g): Lungs / Tissue (% ID/g): Muscle / Tissue (% ID/g): Pancreas / Tissue (% ID/g): Salivary / Tissue (% ID/g): Seminal / Tissue (% ID/g): Spleen / Tissue (% ID/g): Stomach / Tissue (% ID/g): Tail / Tissue (% ID/g): Testes / Tissue (% ID/g): Thyroid / Tissue (% ID/g): Tumor / Tissue (% ID/g): Urine / tumor-to-background contrast ratio Tumor: Blood / tumor-to-background contrast ratio Tumor: Muscle / tumor-to-background contrast ratio Tumor: kidney: ^177Lu
Experimental: Imaging and biodistribution experiments were performed using NODSCID 1L2RγKO male mice. Mice were anesthetized by inhalation with 2% isoflurane in oxygen, and implanted subcutaneously with 1×10^7 LNCaP cells behind left shoulder. Mice were imaged or used in biodistribution studies when the tumor grew up to reach 5-8 mm in diameter during 5-6 weeks.
SPECT/CT imaging experiments were conducted using the MlLabs (Utrecht, the Netherlands) U-SPECT-II/CT scanner. Each tumor bearing mouse was injected with ˜37 MBq of ^177Lu-labeled HTK03041 through the tail vein under anesthesia (2% isoflurane in oxygen). The mice were allowed to recover and roam freely in their cage and imaged at 1, 4, 24, 72 and 120 hours after injection. At each time point, the mice were sedated again and positioned in the scanner. A 5-min CT scan was conducted first for anatomical reference with a voltage setting at 60 kV and current at 615 μA followed by a 60-min static emission scan acquired in list mode using an ultra-high resolution multi-pinhole rat-mouse (1 mm pinhole size) collimator. Data were reconstructed using the U-SPECT II software with a 20% window width on three energy windows. The photopeak window was centered at 208 keV, with lower scatter and upper scatter windows centered at 170 and 255 keV, respectively. Reconstruction parameters used maximum-likelihood expectation maximization (3 iterations), pixel-based ordered subset expectation maximization (16 subsets), and a post-processing filter (Gaussian blurring) of 0.5 mm. Images were decay corrected to injection time in PMOD (PMOD Technologies, Switzerland) then converted to DICOM for qualitative visualization in Inveon Research Workplace (Siemens Medical Solutions USA, Inc.).
For biodistribution studies, the mice were injected with the radiotracer as described above. At predetermined time points (1 or 3 h for ^68Ga studies; 1, 4, 24, 72, or 120 h for ^177Lu studies), the mice was anesthetized with 2% isoflurane inhalation, and euthanized by CO2 inhalation. Blood was withdrawn immediately from the heart, and the organs/tissues of interest were collected. The collected organs/tissues were weighed and counted using a Perkin Elmer (Waltham, MA) Wizard2 2480 gamma counter. The uptake in each organ/tissue was normalized to the injected dose using a standard curve, and expressed as the percentage of the injected dose per gram of tissue (% ID/g).

`O=C([O-])CN1CCN(CC(=O)[O-])CCN(CC(=O)NC[C@H]2CC[C@H](C(=O)N[C@@H](Cc3c4ccccc4cc4ccccc34)C(=O)NCCCC[C@H](NC(=O)N[C@@H](CCC(=O)O)C(=O)O)C(=O)O)CC2)CCN(CC(=O)[O-])CC1.[177Lu+3]` [^177Lu-HTK03041] was tested, and the peaked tumor uptake (LNCaP tumor-bearing mice) was ~20 % ID/g, the “Tissue (% ID/g): Adrenal glands” value (1 h post-injection) was 5.53 ± 1.90 % ID/g and the “Tissue (% ID/g): Blood” value (1 h post-injection) was 0.84 ± 0.15 % ID/g. For the same compound, the “Tissue (% ID/g): Bone” value (1 h post-injection) was 0.29 ± 0.07 % ID/g, the “Tissue (% ID/g): Brain” value (1 h post-injection) was 0.04 ± 0.01 % ID/g and the “Tissue (% ID/g): Fat” value (1 h post-injection) was 1.09 ± 0.20 % ID/g. For the same compound, the “Tissue (% ID/g): Heart” value (1 h post-injection) was 2.44 ± 0.43 % ID/g, the “Tissue (% ID/g): Intestine” value (1 h post-injection) was 1.25 ± 0.15 % ID/g and the “Tissue (% ID/g): Kidneys” value (1 h post-injection) was 98.6 ± 9.27 % ID/g. The “Tissue (% ID/g): Lacrimal” value (1 h post-injection) was 0.03 ± 0.04 % ID/g, the “Tissue (% ID/g): Liver” value (1 h post-injection) was 1.91 ± 0.38 % ID/g and the “Tissue (% ID/g): Lungs” value (1 h post-injection) was 4.41 ± 0.49 % ID/g. The “Tissue (% ID/g): Muscle” value (1 h post-injection) was 0.94 ± 0.20 % ID/g, the “Tissue (% ID/g): Pancreas” value (1 h post-injection) was 1.61 ± 0.24 % ID/g and the “Tissue (% ID/g): Salivary” value (1 h post-injection) was 5.88 ± 0.82 % ID/g. The “Tissue (% ID/g): Seminal” value (1 h post-injection) was 1.22 ± 0.85 % ID/g, the “Tissue (% ID/g): Spleen” value (1 h post-injection) was 8.80 ± 2.53 % ID/g and the “Tissue (% ID/g): Stomach” value (1 h post-injection) was 0.47 ± 0.18 % ID/g. For the same compound, the “Tissue (% ID/g): Tail” value (1 h post-injection) was 3.41 ± 3.03 % ID/g, the “Tissue (% ID/g): Testes” value (1 h post-injection) was 1.01 ± 0.17 % ID/g and the “Tissue (% ID/g): Thyroid” value (1 h post-injection) was 3.38 ± 0.44 % ID/g. For the same compound, the “Tissue (% ID/g): Tumor” value (1 h post-injection) was 10.8 ± 1.57 % ID/g, the “Tissue (% ID/g): Urine” value (1 h post-injection) was 160 ± 49.6 % ID/g and the “tumor-to-background contrast ratio Tumor: Blood” value (1 h post-injection) was 13.4 ± 4.08. The “tumor-to-background contrast ratio Tumor: Muscle” value (1 h post-injection) was 12.1 ± 4.21, the “tumor-to-background contrast ratio Tumor: kidney” value (1 h post-injection) was 0.11 ± 0.02 and the “Tissue (% ID/g): Adrenal glands” value (4 h post-injection) was 3.41 ± 0.54 % ID/g. The “Tissue (% ID/g): Blood” value (4 h post-injection) was 0.31 ± 0.04 % ID/g, the “Tissue (% ID/g): Bone” value (4 h post-injection) was 0.45 ± 0.53 % ID/g and the “Tissue (% ID/g): Brain” value (4 h post-injection) was 0.05 ± 0.05 % ID/g. For the same compound, the “Tissue (% ID/g): Fat” value (4 h post-injection) was 0.56 ± 0.16 % ID/g, the “Tissue (% ID/g): Heart” value (4 h post-injection) was 1.69 ± 0.13 % ID/g and the “Tissue (% ID/g): Intestine” value (4 h post-injection) was 0.95 ± 0.08 % ID/g. For the same compound, the “Tissue (% ID/g): Kidneys” value (4 h post-injection) was 101 ± 13.3 % ID/g, the “Tissue (% ID/g): Lacrimal” value (4 h post-injection) was 0.02 ± 0.01 % ID/g and the “Tissue (% ID/g): Liver” value (4 h post-injection) was 1.46 ± 0.17 % ID/g. The “Tissue (% ID/g): Lungs” value (4 h post-injection) was 3.20 ± 0.41 % ID/g, the “Tissue (% ID/g): Muscle” value (4 h post-injection) was 0.56 ± 0.15 % ID/g and the “Tissue (% ID/g): Pancreas” value (4 h post-injection) was 1.15 ± 0.13 % ID/g. The “Tissue (% ID/g): Salivary” value (4 h post-injection) was 2.18 ± 0.56 % ID/g, the “Tissue (% ID/g): Seminal” value (4 h post-injection) was 0.57 ± 0.12 % ID/g and the “Tissue (% ID/g): Spleen” value (4 h post-injection) was 3.22 ± 1.01 % ID/g. The “Tissue (% ID/g): Stomach” value (4 h post-injection) was 0.37 ± 0.06 % ID/g, the “Tissue (% ID/g): Tail” value (4 h post-injection) was 1.06 ± 0.60 % ID/g and the “Tissue (% ID/g): Testes” value (4 h post-injection) was 0.92 ± 0.10 % ID/g. For the same compound, the “Tissue (% ID/g): Thyroid” value (4 h post-injection) was 2.10 ± 0.19 % ID/g, the “Tissue (% ID/g): Tumor” value (4 h post-injection) was 18.7±2.96 % ID/g and the “Tissue (% ID/g): Urine” value (4 h post-injection) was 84.6 ± 39.3 % ID/g. The “tumor-to-background contrast ratio Tumor: Blood” value (4 h post-injection) was 60.3 ± 4.81, the “tumor-to-background contrast ratio Tumor: Muscle” value (4 h post-injection) was 34.4 ± 8.39 and the “tumor-to-background contrast ratio Tumor: kidney” value (4 h post-injection) was 0.19 ± 0.02. The “Tissue (% ID/g): Adrenal glands” value (24 h post-injection) was 0.76 ± 0.10 % ID/g, the “Tissue (% ID/g): Blood” value (24 h post-injection) was 0.07 ± 0.00 % ID/g and the “Tissue (% ID/g): Bone” value (24 h post-injection) was 0.07 ± 0.02 % ID/g. The “Tissue (% ID/g): Brain” value (24 h post-injection) was 0.01 ± 0.00 % ID/g, the “Tissue (% ID/g): Fat” value (24 h post-injection) was 0.16 ± 0.02 % ID/g and the “Tissue (% ID/g): Heart” value (24 h post-injection) was 0.41 ± 0.07 % ID/g. The “Tissue (% ID/g): Intestine” value (24 h post-injection) was 0.30 ± 0.06 % ID/g, the “Tissue (% ID/g): Kidneys” value (24 h post-injection) was 20.3 ± 6.51 % ID/g and the “Tissue (% ID/g): Lacrimal” value (24 h post-injection) was 0.00 ± 0.00 % ID/g. The “Tissue (% ID/g): Liver” value (24 h post-injection) was 0.42 ± 0.08 % ID/g, the “Tissue (% ID/g): Lungs” value (24 h post-injection) was 0.83 ± 0.12 % ID/g and the “Tissue (% ID/g): Muscle” value (24 h post-injection) was 0.15 ± 0.03 % ID/g. For the same compound, the “Tissue (% ID/g): Pancreas” value (24 h post-injection) was 0.26 ± 0.04 % ID/g.
